Laboratory results: patent US20090111710A1, “CELLULAR SIGNALING PATHWAY BASED ASSAYS, REAGENTS AND KITS” (Cell NetwoRX LLC, priority 2005, published 2009)

How the values were obtained:
[1] = tested on: PKC subtypes □, □ and □; conditions: >uM; cited from earlier work
[2] = tested on: PKC □; conditions: read-out: Reported Potency IC50; cited from earlier work
[3] = tested on: relevant target and pathway; conditions: cited from earlier work
[4] = biological target: MEK ½ (Homo sapiens, UniProt P36507); conditions: second value, read-out: Reported Potency IC50; cited from earlier work
Chain of MEK ½ (Homo sapiens, UniProt P36507) (P36507 whole entry): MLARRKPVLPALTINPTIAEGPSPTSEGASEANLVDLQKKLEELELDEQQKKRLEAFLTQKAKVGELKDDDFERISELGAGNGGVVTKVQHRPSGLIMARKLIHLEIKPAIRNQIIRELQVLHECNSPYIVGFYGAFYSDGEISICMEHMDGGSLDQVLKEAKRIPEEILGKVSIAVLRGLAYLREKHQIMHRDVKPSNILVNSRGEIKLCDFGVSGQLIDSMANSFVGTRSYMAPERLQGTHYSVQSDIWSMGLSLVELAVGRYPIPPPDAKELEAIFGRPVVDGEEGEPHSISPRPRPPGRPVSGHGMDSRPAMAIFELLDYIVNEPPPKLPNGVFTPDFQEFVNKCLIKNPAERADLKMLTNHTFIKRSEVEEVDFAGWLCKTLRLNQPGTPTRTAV

[5] = biological target: MEK ½ (Homo sapiens, UniProt Q02750); conditions: first value, read-out: Reported Potency IC50; cited from earlier work
Chain of MEK ½ (Homo sapiens, UniProt Q02750) (Q02750 whole entry): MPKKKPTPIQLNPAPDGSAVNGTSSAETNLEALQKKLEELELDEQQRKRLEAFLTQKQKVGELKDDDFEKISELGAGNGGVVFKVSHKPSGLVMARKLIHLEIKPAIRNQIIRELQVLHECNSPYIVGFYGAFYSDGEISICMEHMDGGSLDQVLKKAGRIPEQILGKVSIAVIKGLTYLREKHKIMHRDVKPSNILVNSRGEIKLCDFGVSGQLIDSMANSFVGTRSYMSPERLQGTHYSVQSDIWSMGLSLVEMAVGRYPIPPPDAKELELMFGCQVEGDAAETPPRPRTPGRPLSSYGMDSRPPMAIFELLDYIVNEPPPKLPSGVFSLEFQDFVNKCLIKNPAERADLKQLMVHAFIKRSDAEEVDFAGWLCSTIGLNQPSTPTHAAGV

[6] = biological target: ERK1 (Homo sapiens, UniProt P27361); conditions: read-out: Selectivity: ERK1 activity IC50; cited from earlier work
Chain of ERK1 (P27361 whole entry, species assumed): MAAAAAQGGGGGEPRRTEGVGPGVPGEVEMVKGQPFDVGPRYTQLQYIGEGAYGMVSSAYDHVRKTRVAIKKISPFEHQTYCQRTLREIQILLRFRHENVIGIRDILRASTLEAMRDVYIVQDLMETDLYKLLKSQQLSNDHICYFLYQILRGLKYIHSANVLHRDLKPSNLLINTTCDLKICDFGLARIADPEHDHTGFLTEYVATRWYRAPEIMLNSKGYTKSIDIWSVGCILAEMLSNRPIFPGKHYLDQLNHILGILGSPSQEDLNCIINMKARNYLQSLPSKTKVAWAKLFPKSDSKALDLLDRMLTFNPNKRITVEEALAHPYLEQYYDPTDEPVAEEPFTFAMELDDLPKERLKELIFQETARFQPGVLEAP

[7] = biological target: T1, MKK4 (Homo sapiens, UniProt P45985); conditions: read-out: Selectivity: MKK4 activity IC50; cited from earlier work
T1 sequence (P45985 1-399): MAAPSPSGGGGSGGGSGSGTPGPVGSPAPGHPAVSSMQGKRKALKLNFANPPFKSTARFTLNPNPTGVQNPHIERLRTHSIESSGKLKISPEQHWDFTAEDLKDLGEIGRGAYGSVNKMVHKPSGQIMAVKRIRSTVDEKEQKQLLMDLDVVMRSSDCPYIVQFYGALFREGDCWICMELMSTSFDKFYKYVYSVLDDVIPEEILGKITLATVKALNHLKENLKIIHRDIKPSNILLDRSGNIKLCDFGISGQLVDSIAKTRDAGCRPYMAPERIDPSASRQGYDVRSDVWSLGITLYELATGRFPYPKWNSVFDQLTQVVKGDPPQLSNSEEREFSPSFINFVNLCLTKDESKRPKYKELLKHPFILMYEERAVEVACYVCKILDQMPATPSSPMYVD

[8] = tested on: angiogenesis; conditions: in vivo; cited from earlier work
[9] = tested on: HUVEC; conditions: 48 hrs, 20 nM VEGF; standard deviation of 10%
Protocol: The cellular phenotypes, cell proliferation and/or cell death are measured using viable cell number determination methods. Measurement of cell proliferation and cytotoxicity using the luminescent assay ViaLight™-HS High Sensitivity Cytotoxicity and Cell Proliferation BioAssay Kit from Cambrex (East Rutherford, N.J.) is optimized for HUVECs. Linear detection of cell proliferation or cell survival is possible from as few as 100 and up to 10^6 cells. […] An alternative measurement of both ATP and ADP levels provides a ratio measurement indicating cells proliferation versus cell death.

[10] = Phase III, patients with wet AMD; cited from earlier work

Cn1c2ccccc2c2c3c(c4c5ccccc5n(CCC#N)c4c21)CNC3=O [Go 6976]
Selectivity: effect on the kinase activity of PKC subtypes □, □ and □ [1]: >uM no effect
IC50 [2]: 2.3 nM
activity against the relevant target and pathway in vivo [3]: shown activity

C[S+]([O-])c1ccc(-c2nc(-c3ccncc3)c(-c3ccc(F)cc3)[nH]2)cc1 (stereo not drawn) [SB 203580]
activity against the relevant target and pathway in vivo [3]: shown activity

N#C/C(=C(/N)Sc1ccc(N)cc1)c1ccccc1C(F)(F)F [SL327]
IC50 [4]: 220 nM
IC50 [5]: 180 nM
IC50 [6]: > 10000 nM
IC50 [7]: > 10000 nM

Cc1cc(C)c(/C=C2\C(=O)Nc3ccccc32)[nH]1 [SU5416]
angiogenesis in the wound-healing model [8]: block angiogenesis
activity against the relevant target and pathway in vivo [3]: shown activity

VEGF
signal to noise for HUVEC proliferation [9]: 2 fold

B1: Lucentis: humanized antibody fragment developed at Genentech, designed to bind and inhibit Vascular Endothelial Growth Factor A (antibody, chains of the INN, looked up, V domains shown)
VH: EVQLVESGGGLVQPGGSLRLSCAASGYDFTHYGMNWVRQAPGKGLEWVGWINTYTGEPTYAADFKRRFTFSLDTSKSTAYLQMNSLRAEDTAVYYCAKYPYYYGTSHWYFDVWGQGTLVTVSS
VL: DIQLTQSPSSLSASVGDRVTITCSASQDISNYLNWYQQKPGKAPKVLIYFTSSLHSGVPSRFSGSGSGTDFTLTISSLQPEDFATYYCQQYSTVPWTFGQGTKVEIK
modifications: Fab
vision [10]: improved vision
